Measurements taken from publication PMC12405493, “Selective ubiquitination of drug-like small molecules by the ubiquitin ligase HUWE1” (Nature Communications, 2025).
Each block holds one molecule with its values, some of them ahead of it.

Tests used:
HEK293T WT cells = experiment: Click chemistry-based detection of compound ubiquitination in cell lysates; set-up: species or system human; conditions: for Compound ubiquitination in cells (click chemistry, cell lysates): HEK293T WT, 10 μM or 20 μM
Protocol: Cell lysate-based applications: HEK293T WT or HUWE1 KO cells at ~70% confluency on a 10-cm dish were treated with 10 μM or 20 μM BI8626 derivative 6, 7 or 8 for the indicated times. As indicated in the results section, derivative 8 yielded slightly stronger signal than 6 and was thus used for analyses of the prerequisites of cellular small-molecule ubiquitination. Treatment with 1 μM TAK243 (MedChemExpress) or 10 μM MLN4924 (Sigma-Aldrich) was performed for 1 h, prior to derivative 8 administration. Cells were collected with ice-cold 1 x DPBS, centrifugated, and the cell pellet was resuspended in 300 μL sodium phosphate buffer (pH 7.0) (Jena Bioscience), supplemented with 1% (v/v) NP-40, 3 M urea, 10 mM NEM, 50 μM PR-619, 10 μM MG-132 and protease-phosphatase inhibitor cocktail. After 20 min rotating at 4 °C, the lysate was cleared by centrifugation, the total protein concentration determined with a Pierce BCA Protein Assay Kit, the sample diluted to ~7.5 μg μL^−1 and supplemented with 5 μM IRDye 800CW Azide (LI-COR), a mixture of 2 mM CuSO4/10 mM THPTA (Jena Bioscience) and 100 mM sodium ascorbate. The click chemistry reaction was performed in the dark at 37 °C, shaking at 300 rpm. After 1 h, the reaction was quenched with 40 mM EDTA, diluted 1.2-fold with 10 mM Tris (pH 7.5), 150 mM NaCl and 0.5 mM EDTA. 25 μL Ubiquitin-Trap Magnetic Agarose beads (Proteintech) were added, the mixture was rotated at 4 °C for 80 min, the resin washed 3 x with 10 mM Tris (pH 7.5), 150 mM NaCl, 0.05% (v/v) NP-40, 0.5 mM EDTA and 3 M urea, following protein elution in 40 μL of 1.5 x SDS-loading dye at 95 °C for 5 min. 10 μL were subjected to SDS-PAGE and analyzed by fluorescence scanning (Odyssey CLx; LI-COR) and Coomassie staining.

HUWE1^FL [1] = molecular target: T1, HUWE1^FL (Homo sapiens, UniProt Q7Z6Z7); experiment: HUWE1^FL multi-turnover ubiquitination reactions without protein substrate (autoubiquitination, free Ub chains); type: biochemical; conditions: for Inhibition by derivatives modified at the piperazine-linked benzyl moiety: Supplementary Fig. 18c, d
T1 construct: made in house; host or cells: HEK293T (transient transfection, anti-Flag purification, SEC)
T1 sequence (Q7Z6Z7 whole entry): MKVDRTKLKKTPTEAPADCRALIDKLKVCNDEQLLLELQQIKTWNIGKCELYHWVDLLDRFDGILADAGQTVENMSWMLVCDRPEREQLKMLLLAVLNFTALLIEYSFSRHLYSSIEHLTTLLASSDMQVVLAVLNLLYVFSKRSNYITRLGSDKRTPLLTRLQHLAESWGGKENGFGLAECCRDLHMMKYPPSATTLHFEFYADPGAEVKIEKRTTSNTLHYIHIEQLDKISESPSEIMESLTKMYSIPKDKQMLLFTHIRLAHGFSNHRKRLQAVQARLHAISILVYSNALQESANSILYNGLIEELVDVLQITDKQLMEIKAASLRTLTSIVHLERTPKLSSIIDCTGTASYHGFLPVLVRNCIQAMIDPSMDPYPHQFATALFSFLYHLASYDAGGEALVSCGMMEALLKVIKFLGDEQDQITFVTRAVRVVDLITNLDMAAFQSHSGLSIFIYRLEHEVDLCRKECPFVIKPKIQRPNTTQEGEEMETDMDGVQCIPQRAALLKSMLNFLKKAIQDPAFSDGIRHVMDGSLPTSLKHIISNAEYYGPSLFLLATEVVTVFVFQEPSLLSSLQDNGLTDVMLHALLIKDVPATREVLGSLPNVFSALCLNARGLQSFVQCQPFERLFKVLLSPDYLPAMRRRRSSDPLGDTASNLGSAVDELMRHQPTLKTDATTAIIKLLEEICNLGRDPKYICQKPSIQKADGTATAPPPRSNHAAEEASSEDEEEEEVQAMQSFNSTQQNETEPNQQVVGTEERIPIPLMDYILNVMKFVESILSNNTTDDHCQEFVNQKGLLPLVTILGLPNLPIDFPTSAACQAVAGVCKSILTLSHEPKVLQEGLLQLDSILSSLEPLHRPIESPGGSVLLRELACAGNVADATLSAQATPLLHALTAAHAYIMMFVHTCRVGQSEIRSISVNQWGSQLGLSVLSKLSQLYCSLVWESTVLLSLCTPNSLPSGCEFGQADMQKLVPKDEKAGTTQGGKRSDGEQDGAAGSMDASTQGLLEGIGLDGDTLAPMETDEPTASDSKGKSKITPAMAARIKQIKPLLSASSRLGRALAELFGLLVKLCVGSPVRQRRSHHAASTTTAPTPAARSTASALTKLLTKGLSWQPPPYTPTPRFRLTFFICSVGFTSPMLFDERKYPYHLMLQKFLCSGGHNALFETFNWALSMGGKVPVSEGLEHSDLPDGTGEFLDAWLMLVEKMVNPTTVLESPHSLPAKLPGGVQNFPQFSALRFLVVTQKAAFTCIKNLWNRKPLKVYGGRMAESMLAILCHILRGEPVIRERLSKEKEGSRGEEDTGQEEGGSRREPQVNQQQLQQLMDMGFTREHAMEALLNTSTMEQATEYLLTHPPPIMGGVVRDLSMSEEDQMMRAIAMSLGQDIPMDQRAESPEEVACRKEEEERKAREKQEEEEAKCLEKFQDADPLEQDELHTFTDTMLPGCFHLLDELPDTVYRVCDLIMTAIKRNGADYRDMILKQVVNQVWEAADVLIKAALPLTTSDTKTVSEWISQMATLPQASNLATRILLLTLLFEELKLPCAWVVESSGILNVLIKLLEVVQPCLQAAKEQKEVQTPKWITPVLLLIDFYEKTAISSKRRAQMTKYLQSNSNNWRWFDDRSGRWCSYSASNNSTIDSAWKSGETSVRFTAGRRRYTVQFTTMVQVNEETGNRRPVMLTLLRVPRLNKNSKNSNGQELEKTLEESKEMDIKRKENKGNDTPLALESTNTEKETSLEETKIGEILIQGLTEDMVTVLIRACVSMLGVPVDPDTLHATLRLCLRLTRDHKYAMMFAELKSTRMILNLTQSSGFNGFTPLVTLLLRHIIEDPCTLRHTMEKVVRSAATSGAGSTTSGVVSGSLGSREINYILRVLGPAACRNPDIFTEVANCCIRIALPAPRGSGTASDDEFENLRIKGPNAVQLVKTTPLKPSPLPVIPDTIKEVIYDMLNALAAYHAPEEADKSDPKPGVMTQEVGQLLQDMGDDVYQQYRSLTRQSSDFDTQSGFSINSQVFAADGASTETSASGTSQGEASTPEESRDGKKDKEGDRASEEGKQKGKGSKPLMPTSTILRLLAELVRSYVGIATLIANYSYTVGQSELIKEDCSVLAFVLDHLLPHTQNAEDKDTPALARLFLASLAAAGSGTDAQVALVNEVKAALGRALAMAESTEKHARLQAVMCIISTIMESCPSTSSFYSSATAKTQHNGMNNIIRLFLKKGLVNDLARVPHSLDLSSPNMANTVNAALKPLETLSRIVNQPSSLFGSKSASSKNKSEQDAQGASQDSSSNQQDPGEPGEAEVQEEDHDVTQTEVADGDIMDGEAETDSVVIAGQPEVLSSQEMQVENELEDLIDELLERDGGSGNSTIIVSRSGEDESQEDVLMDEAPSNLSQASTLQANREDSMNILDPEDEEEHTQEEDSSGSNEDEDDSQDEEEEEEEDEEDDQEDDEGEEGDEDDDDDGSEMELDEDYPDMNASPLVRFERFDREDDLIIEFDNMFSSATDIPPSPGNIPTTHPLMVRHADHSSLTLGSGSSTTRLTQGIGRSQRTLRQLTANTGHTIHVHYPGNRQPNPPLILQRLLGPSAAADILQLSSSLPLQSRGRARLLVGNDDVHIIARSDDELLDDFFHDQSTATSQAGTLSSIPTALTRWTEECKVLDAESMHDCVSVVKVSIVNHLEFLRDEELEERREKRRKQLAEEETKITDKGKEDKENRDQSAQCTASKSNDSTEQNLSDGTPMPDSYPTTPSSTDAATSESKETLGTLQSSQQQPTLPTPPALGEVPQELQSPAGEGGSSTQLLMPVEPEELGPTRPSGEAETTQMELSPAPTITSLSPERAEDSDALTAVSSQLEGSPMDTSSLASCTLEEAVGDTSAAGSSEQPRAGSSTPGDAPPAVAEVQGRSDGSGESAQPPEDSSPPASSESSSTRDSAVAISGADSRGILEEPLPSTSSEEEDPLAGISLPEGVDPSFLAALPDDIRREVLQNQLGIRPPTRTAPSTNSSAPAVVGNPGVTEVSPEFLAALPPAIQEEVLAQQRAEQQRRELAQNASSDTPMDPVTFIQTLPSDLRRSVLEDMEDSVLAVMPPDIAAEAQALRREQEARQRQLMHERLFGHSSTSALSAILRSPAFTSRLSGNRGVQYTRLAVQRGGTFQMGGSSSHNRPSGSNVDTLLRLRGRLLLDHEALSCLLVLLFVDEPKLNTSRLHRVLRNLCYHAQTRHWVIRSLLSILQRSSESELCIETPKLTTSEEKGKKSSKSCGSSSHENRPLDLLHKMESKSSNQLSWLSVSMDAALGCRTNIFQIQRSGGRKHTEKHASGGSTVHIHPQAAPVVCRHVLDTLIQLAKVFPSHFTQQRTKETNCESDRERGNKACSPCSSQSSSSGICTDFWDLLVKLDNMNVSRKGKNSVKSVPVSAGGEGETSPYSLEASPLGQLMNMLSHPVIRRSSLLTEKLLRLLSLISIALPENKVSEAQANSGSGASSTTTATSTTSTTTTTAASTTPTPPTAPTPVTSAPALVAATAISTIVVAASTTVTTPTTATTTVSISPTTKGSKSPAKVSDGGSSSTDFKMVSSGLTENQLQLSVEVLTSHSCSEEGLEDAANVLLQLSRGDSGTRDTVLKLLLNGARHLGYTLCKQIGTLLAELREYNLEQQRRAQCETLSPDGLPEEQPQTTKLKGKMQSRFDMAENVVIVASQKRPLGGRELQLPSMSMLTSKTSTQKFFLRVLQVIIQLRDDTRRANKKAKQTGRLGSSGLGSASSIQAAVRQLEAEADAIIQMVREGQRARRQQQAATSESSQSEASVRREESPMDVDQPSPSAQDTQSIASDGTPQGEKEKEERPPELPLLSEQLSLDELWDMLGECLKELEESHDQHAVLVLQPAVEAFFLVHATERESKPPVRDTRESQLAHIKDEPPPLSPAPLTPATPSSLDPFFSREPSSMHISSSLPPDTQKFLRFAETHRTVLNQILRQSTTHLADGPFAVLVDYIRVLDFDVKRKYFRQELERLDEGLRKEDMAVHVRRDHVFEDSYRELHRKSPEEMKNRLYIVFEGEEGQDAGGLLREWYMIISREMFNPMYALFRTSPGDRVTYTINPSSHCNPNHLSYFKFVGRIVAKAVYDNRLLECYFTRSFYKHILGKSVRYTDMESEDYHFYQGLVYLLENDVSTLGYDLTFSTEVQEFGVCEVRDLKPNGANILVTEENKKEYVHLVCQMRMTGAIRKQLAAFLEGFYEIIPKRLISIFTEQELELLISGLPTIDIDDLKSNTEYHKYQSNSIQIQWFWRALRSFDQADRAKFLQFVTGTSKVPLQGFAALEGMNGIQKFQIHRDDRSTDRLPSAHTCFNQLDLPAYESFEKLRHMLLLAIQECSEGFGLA
Protocol: (§1) HUWE1^HECT multi-turnover ubiquitination reactions were performed for 30 minutes (unless stated otherwise) with 200 nM UBA1, 5 μM UBE2L3 or UBE2D3 (as specified), 1 μM HUWE1^HECT and 30 μM Ub in 25 mM HEPES (pH 7.5), 100 mM NaCl, 3 mM MgCl2, and 0.5 mM TCEP. HUWE1^FL multi-turnover ubiquitination reactions included 50 nM UBA1, 2.5 μM UBE2L3, 0.05 μM HUWE1^FL, 0.5 μM MCL1 (or 0.5 μM H2B or 1 μM FOXP3) and 20 μM Ub in 20 mM HEPES (pH 7.5), 100 mM NaCl, 3 mM MgCl2, and 0.5 mM TCEP. All multi-turnover reactions were started by the addition of 1 mM ATP, incubated at 30 °C, quenched with SDS-loading dye. If not stated otherwise, HUWE1^FLautoubiquitination reactions were incubated for 20 minutes. Substrate ubiquitination reactions with MCL1 or H2B were incubated for 10 and 20 min, respectively; those with FOXP3 for 30 min. Those reactions that were monitored by fluorescence contained a fluorescent Ub tracer (IRDye 800CW maleimide; LI-COR)[55] and were monitored using an Odyssey CLx scanner (LI-COR), followed by Coomassie staining. In the fluorescence images, only those marker bands are labeled (in kDa) that are visible by fluorescence; all marker bands are labeled in the Coomassie-stained images. Statistical analyses were performed with Prism 9 v.9.3.1 (GraphPad).

HUWE1^HECT [2] = molecular target: T2, HUWE1^HECT (Homo sapiens, UniProt Q7Z6Z7); experiment: Analytical SEC / intact protein MS of HUWE1^HECT-driven compound ubiquitination; type: biochemical; conditions: 20 μM compound; + ATP; WT Ub
T2 construct: the isolated HECT domain of HUWE1 (HUWE1^HECT); made in house
T2 sequence (Q7Z6Z7 3993-4374): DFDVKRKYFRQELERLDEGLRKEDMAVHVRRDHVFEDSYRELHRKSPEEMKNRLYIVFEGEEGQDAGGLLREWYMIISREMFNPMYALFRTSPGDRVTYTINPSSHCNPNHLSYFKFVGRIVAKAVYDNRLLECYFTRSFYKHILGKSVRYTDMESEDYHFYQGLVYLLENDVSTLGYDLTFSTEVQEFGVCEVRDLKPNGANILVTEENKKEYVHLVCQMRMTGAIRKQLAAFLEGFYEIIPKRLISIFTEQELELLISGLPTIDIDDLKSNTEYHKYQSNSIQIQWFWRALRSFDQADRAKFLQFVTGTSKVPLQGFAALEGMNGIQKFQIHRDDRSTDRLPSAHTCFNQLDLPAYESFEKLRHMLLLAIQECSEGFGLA
Protocol: HUWE1^HECT multi-turnover ubiquitination reactions were performed with 500 nM UBA1, 5 μM UBE2L3, 5 μM HUWE1^HECT and 100 μM Ub in 20 mM HEPES (pH 7.5), 100 mM NaCl and 0.5 mM TCEP in the presence of 1 mM ATP and 3 mM MgCl2. After 15 min incubation at 30 °C, the mixture was injected into a Superdex 75 Increase 3.2/300 column (Cytiva), equilibrated in 25 mM HEPES (pH 7.5), 100 mM NaCl, and 0.5 mM TCEP at 4 °C. Chromatograms were analyzed and peaks integrated with Unicorn v.7.9.02440 (Cytiva). Data were plotted with Prism v.9.3.1 (GraphPad).
Intact protein LC/MS: protein molecular weights (MWs) were determined by LC/MS on a nanoflow chromatography system (Dionex U3000 nanoRSLC), hyphenated to a hybrid quadrupole/orbitrap mass spectrometer (Q Exactive HF) with a NanoFlex ion source and controlled by Xcalibur v.2.4 (all Thermo Fisher Scientific). Proteins were dissolved in 2% (v/v) acetonitrile (ACN), 0.1% (v/v) formic acid (FA) to a concentration of 100 fmol μL^−1. For each analysis, 500 fmol were enriched on a pre-column (0.15 ×20 mm, Reprosil-Pur120 C18-AQ 5 μm; Dr. Maisch GmbH) and separated on an analytical RP-C18 column (0.075 mm×200 mm, Reprosil-Pur 120 C18-AQ; 1.9 μm, Dr. Maisch GmbH), using a 23-min linear gradient of 10–80% (v/v) ACN/0.1% (v/v) FA at 300 nl min^−1. MS data were acquired in full MS mode across the 500–1800 m/z-range at a resolution setting of 120,000 FWHM, an AGC target of 1*10e6 and a maximum fill time of 200 ms. Charge state deconvolution and MW representation were performed in Freestyle v.1.9 (Thermo Fisher Scientific), using default settings for high-resolution data.

HUWE1^HECT [3] = molecular target: T3, HUWE1^HECT (Homo sapiens, UniProt Q7Z6Z7); experiment: HUWE1^HECT multi-turnover ubiquitination reactions (fluorescent Ub tracer, SDS-PAGE); type: biochemical; conditions: 20 μM compound
T3 construct: the isolated HECT domain of HUWE1 (HUWE1^HECT); made in house
T3 sequence (Q7Z6Z7 4038-4374 limits assumed): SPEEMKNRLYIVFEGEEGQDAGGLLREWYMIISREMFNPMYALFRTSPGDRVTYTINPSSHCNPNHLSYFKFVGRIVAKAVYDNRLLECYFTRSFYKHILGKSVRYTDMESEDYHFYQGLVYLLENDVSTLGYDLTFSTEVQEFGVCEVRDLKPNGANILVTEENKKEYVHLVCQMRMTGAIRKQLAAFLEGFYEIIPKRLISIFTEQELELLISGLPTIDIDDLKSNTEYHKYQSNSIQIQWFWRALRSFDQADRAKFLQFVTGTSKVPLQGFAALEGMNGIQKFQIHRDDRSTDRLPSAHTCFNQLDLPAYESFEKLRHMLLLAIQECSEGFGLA
Protocol: as §1

HUWE1^FL [4] = molecular target: T1, HUWE1^FL; experiment: Click chemistry-based detection of compound ubiquitination by HUWE1^FL in vitro; type: biochemical
Protocol: In vitro applications: Multi-turnover ubiquitination reactions were performed with 50 nM UBA1, 2.5 μM UBE2L3, 50 nM HUWE1^FL and 20 μM Ub in 20 mM HEPES (pH 7.5), 100 mM NaCl, 0.5 mM TCEP, and 20 μM derivative 6 or 7 ± 0.5 μM MCL1 at 30 °C for 10 min. The reactions were started by addition of 1 mM ATP/3 mM MgCl2 and quenched with 3 M urea. Click-chemistry labeling was performed by incubation of the samples with 20 μM IRDye 800CW Azide Infrared Dye (LI-COR), 5 mM CuSO4, 10 mM THPTA and 50 mM sodium ascorbate for 60 min at 37 °C in the dark, following by quenching with 40 mM EDTA. Following SDS-PAGE, the gels were fixed in 10% acetic acid and 30% ethanol for 2 ×15 min and washed in water overnight.

HEK293T HUWE1 KO cells = experiment: Click chemistry-based detection of compound ubiquitination in HUWE1 knock-out cells (± HUWE1 overexpression); type: cell-based, human
Protocol: The protocol for CRISPR/Cas9-mediated HUWE1-knockout in HEK293T cells was previously described. In short, two sgRNAs were cloned separately into pX330-U6-Chimeric_BB-CBh-hSpCas9 (a gift from Feng Zhang; http://n2t.net/addgene:42230; RRID:Addgene_42230)[68] and pSpCas9(BB)−2A-GFP (PX458) (a gift from Feng Zhang; http://n2t.net/addgene:48138; RRID:Addgene_48138)[69]. Transfections were performed with Lipofectamine LTX (Thermo Fisher Scientific), single cells FACS-seeded into 96-well plates, and clones derived from single cells screened for HUWE1 deficiency by sequencing and immunoblotting.
Transient transfections of HA-tagged HUWE1^FL WT and C4341S (Fig. 5g) were performed in antibiotic-free and FBS-free media using Lipofectamine 3000 (Thermo Fisher Scientific). 6 h post transfection the media was exchanged to media supplemented with antibiotics and FBS. 24 h post transfection cells were treated with 10 μM or 20 μM BI8626 derivative 8 for 1 h and then collected.
Cell lysate-based applications: HEK293T WT or HUWE1 KO cells at ~70% confluency on a 10-cm dish were treated with 10 μM or 20 μM BI8626 derivative 6, 7 or 8 for the indicated times. As indicated in the results section, derivative 8 yielded slightly stronger signal than 6 and was thus used for analyses of the prerequisites of cellular small-molecule ubiquitination. Treatment with 1 μM TAK243 (MedChemExpress) or 10 μM MLN4924 (Sigma-Aldrich) was performed for 1 h, prior to derivative 8 administration. […] After 20 min rotating at 4 °C, the lysate was cleared by centrifugation, the total protein concentration determined with a Pierce BCA Protein Assay Kit, the sample diluted to ~7.5 μg μL^−1 and supplemented with 5 μM IRDye 800CW Azide (LI-COR), a mixture of 2 mM CuSO4/10 mM THPTA (Jena Bioscience) and 100 mM sodium ascorbate. […] 10 μL were subjected to SDS-PAGE and analyzed by fluorescence scanning (Odyssey CLx; LI-COR) and Coomassie staining.

Structure (SMILES): NS(=O)(=O)OC[C@@H]1C[C@@H](n2ccc3c(N[C@H]4CCc5ccccc54)ncnc32)C[C@@H]1O [MLN4924]
- Effect on cell-based ubiquitination of derivative 8 (HEK293T WT cells; 10 μM MLN4924 for 1 h prior to derivative 8): does not markedly affect derivative 8 ubiquitination

Structure (SMILES): NS(=O)(=O)OC[C@H]1C[C@@H](Nc2ccnc3cc(-c4cccc(SC(F)(F)F)c4)nn23)[C@H](O)[C@@H]1O [TAK243]
- Effect on cell-based ubiquitination of derivative 8 (HEK293T WT cells; 1 μM TAK243 for 1 h prior to derivative 8): markedly reduced

Structure (SMILES): NCc1ccc(CNc2ncnc3c(N4CCN(Cc5ccccc5)CC4)ncnc23)cc1 [derivative 1, N-(4-(aminomethyl)benzyl)−8-(4-benzylpiperazin-1-yl)pyrimido[5,4-d]pyrimidin-4-amine]
- Inhibition of HUWE1^FL by BI8626 derivatives (HUWE1^FL [1]; 20 μM, without protein substrate and with MCL1 (Fig. 4c, d)): also inhibited
- Compound ubiquitination by HUWE1^HECT (SEC, intact protein MS) (HUWE1^HECT [2]): efficiently ubiquitinated
- HUWE1^HECT inhibition (autoubiquitination) by BI8626 derivatives (HUWE1^HECT [3]): retained HUWE1^HECT inhibition

- Inhibition by derivatives modified at the piperazine-linked benzyl moiety (HUWE1^FL [1]): maintains considerable inhibition
Structure (SMILES): CN1CCN(c2ncnc3c(NCc4cccc(CN)c4)ncnc23)CC1 [derivative 5, N-(3-(aminomethyl)benzyl)−8-(4-methylpiperazin-1-yl)pyrimido[5,4-d]pyrimidin-4-amine]

- Inhibition by derivatives modified at the piperazine-linked benzyl moiety (HUWE1^FL [1]): preserved inhibition to a similar extent
Structure (SMILES): C#CCCCN1CCN(c2ncnc3c(NCc4cccc(CN)c4)ncnc23)CC1 [derivative 6, N-(3-(aminomethyl)benzyl)−8-(4-(pent-4-yn-1-yl)piperazin-1-yl)pyrimido[5,4-d]pyrimidin-4-amine]
- Compound ubiquitination by HUWE1^FL, click-chemistry fluorescence (HUWE1^FL [4]; 20 μM compound, 10 min, ATP-dependent): fluorescent signals corresponding to the mono- and diubiquitinated forms
- MCL1 ubiquitination (immunoblotting) with increasing compound (HUWE1^FL [4]; varying concentrations of derivative 6 and MCL1): decreased as the compound modification increased
- Compound ubiquitination in cells (click chemistry, cell lysates) (HEK293T WT cells): Both mono- and polyubiquitinated forms of derivatives 6 and 8 were detected

- Inhibition by derivatives modified at the piperazine-linked benzyl moiety (HUWE1^FL [1]): preserved inhibition to a similar extent
Structure (SMILES): C#CCN1CCN(c2ncnc3c(NCc4cccc(CN)c4)ncnc23)CC1 [derivative 8, N-(3-(aminomethyl)benzyl)−8-(4-(prop-2-yn-1-yl)piperazin-1-yl)pyrimido[5,4-d]pyrimidin-4-amine]
- Compound ubiquitination in HUWE1 knock-out cells (HEK293T HUWE1 KO cells; HEK293T HUWE1 KO vs WT): still detected in this context, albeit at slightly reduced levels
- Compound ubiquitination upon overexpression of WT HUWE1 (not catalytically inactive variant) (HEK293T HUWE1 KO cells; HEK293T HUWE1 KO, transient transfection): enhances compound ubiquitination
- Share of total compound ubiquitination signal that endogenous HUWE1 accounts for (HEK293T HUWE1 KO cells; HEK293T WT vs HUWE1 KO, all species (8-Ub, 8-Ub2, 8-Ubn)): ≤ 25%
- Compound ubiquitination in cells (click chemistry, cell lysates) (HEK293T WT cells): Both mono- and polyubiquitinated forms of derivatives 6 and 8 were detected
